# From paper PMC8232621, “Antimicrobial Activity of a Library of Thioxanthones and Their Potential as Efflux Pump Inhibitors” (Pharmaceuticals, 2021)
# Tested on: E. faecalis B3/101
# Experiment: Synergy with vancomycin (antibiotic MIC in presence of compound)
# Assay type: cell-based, Enterococcus faecalis
# Description: The referred library of thioxanthones was initially tested for their antimicrobial activity against six bacterial strains: the Gram-negative Escherichia coli ATCC 25922, Pseudomonas aeruginosa ATCC 27853 and Salmonella enterica serovar Typhimurium SL1344 (SE03), with the acrA gene deleted, and the Gram-positive Staphylococcus aureus ATCC 29213, Enterococcus faecalis ATCC 29212 and the methicillin and ofloxacin-resistant clinical isolate S. aureus 272123. For the synergy assay, two clinically relevant isolates were used: the extended-spectrum β-lactamase (ESBL)-producing E. coli SA/2 [23] and the vancomycin-resistant E. faecalis (VRE) B3/101 [23]. The antibiotics used were cefotaxime (CTX) and vancomycin (VAN), respectively.
# The combined effect of the compounds and clinically relevant antimicrobial drugs was evaluated by determining the antibiotic’s MIC in the presence of each compound. […] The antibiotic tested was serially diluted, whereas the concentration of each compound was kept fixed. In the case of compound 12, the concentration used was 8 µg/mL. For all other compounds, the concentration used was 64 µg/mL. Antibiotic MICs were determined as described above.
compound,measurement,value
"CCCOc1ccc(N2CCNC(=O)C2)c2c(=O)c3ccccc3sc12 [Compound 9, 4-(9-Oxo-4-propoxy-9H-thioxanthen-1-yl)piperazin-2-one]",decrease of the MIC of VAN,16 fold
